Results from patent publication US9403800B2, “Compounds for inhibition of cancer cell proliferation” (ChemRegen, Inc., priority 2012, dated 2016).

How the values were obtained:
xenopus embryos = experiment: xenopus embryo development and marker gene expression; assay type: in vivo
From the text: Previous studies highlighted the importance of Wnt pathway signaling in promoting cellular differentiation. Accordingly, the physiological relevance of the Wnt inhibitory functions of 1 was shown by the effect of this compound on the morphology of xenopus embryos during embryonic development. […] Vent2 and Otx2 are regulated by TCF3 during anteroposterior axis specification in xenopus embryos and HIPK2 antagonizes them through phosphorylation of TCF3. These phenotypes are very similar to embryos with TCF3-knockout and contrast to those of HIPK2-knockout. Together, the observations indicate that compound 1 activates HIPK2 to remove TCF proteins from their target DNA via phosphorylation.

LNCap = experiment: viability (Alamar Blue), LNCap; assay type: cell-based; details: Homo sapiens, 24 hrs
HCT-116 = experiment: viability (Alamar Blue), HCT-116; assay type: cell-based; details: Homo sapiens; HCT-116, 24 hrs
Procedure: (§1) Given Compounds 1, 4, and 15 inhibited cancer cell proliferation and stimulated apoptosis, we tested the effects compounds 1, 4, and 15 on cancer cell viability and cytotoxicity. The MDA-MB-231, MCF-7, PC-3, and HCT-116 cells were treated with the indicated compounds for 24 hrs. over a dose range from 1.6 to 5000 nM. Viability and cytotoxicity were then measured by the Alamar Blue and Vibrant Cytotox assays respectively.

PC-3 [1] = experiment: stimulation of apoptosis, Caspase 3/7 cleavage (Caspase-Glo Kit), PC-3; assay type: cell-based; details: Homo sapiens, PC-3, 24 hrs
Procedure: Given Compounds 1, 4, and 15 inhibited cancer cell proliferation, we tested whether compounds 1, 4, and 15 stimulated cancer cell apoptosis. The MDA-MB-231, MCF-7, PC-3, and HCT-116 cells were treated with the indicated compounds for 24 hrs. over a dose range from 1.6 to 5000 nM. Apoptosis was then measured by monitoring Caspase 3/7 cleavage (Caspase-Glo Kit).

[2] = test system: Endogenous Target Genes for Wnt & Apoptotic Pathways in PC-3; experiment: qPCR of Wnt and pro-apoptotic target genes, PC-3; assay type: cell-based; parameters: concentration or dose not given beside the values; details: PC-3, 24 hrs, qPCR normalized to 36B4
Procedure: Given the effects of Compounds 1, 4, and 15 on biological functions (e.g., proliferation, viability, and apoptosis) in several cancer cell lines, we tested the effects of compounds 1, 4, and 15 on regulation of endogenous Wnt and pro-apoptotic gene expression. MDA-MB-231, MCF-7, PC-3, and HCT-116 cancerncells were treated with the indicated compounds for 24 hrs. over a dose range from 1.6 to 5000 nM. Gene expression was measured using qPCR, normalized to the housekeeping gene, 36B4, and calculated % change relative to DMSO control. NC, no change.

[3] = cytotoxicity (Vibrant Cytotox assay), HCT-116; assay type: cell-based; details: human, HCT-116 cells; HCT-116, 24 hrs
Procedure: as §1

PC-3 [4] = experiment: inhibition of proliferation (PicoGreen DNA assay), PC-3; assay type: cell-based; details: Homo sapiens
Procedure: We tested a subset of the 50 sulfonamide analogues for inhibition of proliferation of the MDA-MB-231, PC-3, MCF-7, and HCT-116 cancer cell lines. Following plating of the cells (24 hrs) in eight identical 96-well plates, the cells were treated with either Compound 1, 4, 15, or vehicle (DMSO) using a dose range of 1.6 to 5000 nM. After the lysis of cells, the cell lysate was resuspended in 25 μl PBS and the DNA was quantified using a PicoGreen assay by measuring fluorescence at Ex490 nm/Em535 nm. Cell proliferation was inhibited by Compounds 1, 4, and 15 for all the cancer cell lines tested with inhibition constants listed in Table 2.

PC-3 prostate tumors = experiment: PC-3 prostate tumor xenograft; assay type: in vivo, mice; details: for growth of PC-3 prostate tumors: i.p. 30 mg/kg daily for 19 days
Procedure: (§2) Based on the inhibition of cancer cell proliferation by the disclosed compounds the disclosed compounds likely will inhibit cancer cell migration. […] Following establishment of HCT-116 tumors, daily doses of either Compound 15 or vehicle were administered by i.p. injection at 20 mg/kg for 28 days. […] The weight of the excised HCT-116 tumors was 77% lower for the Compound 15-treated mice relative to the vehicle control on Day 28 of the experiment. […] Following establishment of PC-3 tumors, daily doses of either Compounds 1, 15 or vehicle were administered by i.p. injection at 30 mg/kg for 19 days. […] The weight of the excised PC-3 tumors was 66% for compound 15-treated mice compared to vehicle-treated controls on Day 19 of the experiment.

PC-3 [5] = experiment: viability (Alamar Blue), PC-3; assay type: cell-based; details: Homo sapiens; PC-3, 24 hrs
Procedure: as §1

HEK293 cells = experiment: apoptosis in HEK293 cells; assay type: cell-based; details: upon treatment
[6] = test system: Endogenous Target Genes for Wnt & Apoptotic Pathways in LNCAP; experiment: qPCR of Wnt and pro-apoptotic target genes, LNCAP; assay type: cell-based; parameters: MYC expression, % change relative to DMSO control / CCDN1 expression, % change relative to DMSO control / BAX expression, % change relative to DMSO control / BAK expression, % change relative to DMSO control / BBC3 expression, % change relative to DMSO control / FOS expression, % change relative to DMSO control: concentration or dose not given beside the values; details: 24 hrs, qPCR normalized to 36B4
[7] = in vivo toxicity assessment in rats; details: 30 mg/kg p.o. daily for one week
Procedure: Compounds of structure I were designed to be chemically and metabolically stable and non-toxic. For example, the alpha methyl group of the quinoxalin ring system protects the sulfonamide from rapid metabolism or hydrolysis. […] We tested Compounds 4 and 15 for toxicity in rats. In one study, we dosed rats with Compound 4 (p.o) daily for one week with 30 mg/kg. In another study, we dosed rats daily for one week with 30 mg/kg Compound 15 by p.o. administration. We monitored the weights of the rats daily over the course of both studies. […] Blood was also obtained from the animals at termination of the experiment.

[8] = test system: HCT-116 xenograft colon tumors; experiment: HCT-116 xenograft colon tumors in nu/nu mice; assay type: in vivo
Procedure: as §2

[9] = xenopus embryos incubated with compound

O=C1CCCN1c1ccc(S(=O)(=O)N2CCCc3ccccc32)cc1 [Compound 1, 1-(4-(3,4-dihydroquinolin-1(2H)-ylsulfonyl)phenyl)pyrrolidin-2-one]
posterior development of xenopus embryos (xenopus embryos; treatment during the mid-blastula transition): inhibited posterior development | anterior and ventral expression domain of Vent2 (xenopus embryos; [9]): expanded | anterior marker gene Otx2 expression (xenopus embryos; [9]): decreased anterior marker gene Otx2 | IC50 (LNCap): 0.09 µM | IC50 (HCT-116): 0.03 µM | IC50 (PC-3 [1]): 0.049 µM | BAK expression, % change relative to DMSO control [2]: −20% | BAX expression, % change relative to DMSO control [2]: +5% | BBC3 expression, % change relative to DMSO control [2]: −38% | CCDN1 expression, % change relative to DMSO control [2]: +10% | FOS expression, % change relative to DMSO control [2]: +75% | JUN expression, % change relative to DMSO control [2]: +75% | MYC expression, % change relative to DMSO control [2]: +25% | IC50 at 24 h [3]: > 5 µM | IC50 (PC-3 [4]): 0.02 µM | growth of PC-3 prostate tumors (PC-3 prostate tumors): inhibited the growth of PC-3 prostate tumors | IC50 (PC-3 [5]): 0.157 µM | apoptotic HEK293 cells (HEK293 cells): increase in apoptotic HEK293 cells | BAK expression, % change relative to DMSO control [6]: −22% | BAX expression, % change relative to DMSO control [6]: −30% | BBC3 expression, % change relative to DMSO control [6]: −90% | CCDN1 expression, % change relative to DMSO control [6]: −10% | FOS expression, % change relative to DMSO control [6]: −15% | MYC expression, % change relative to DMSO control [6]: −35%

CC1CCc2ccccc2N1S(=O)(=O)c1ccc(N2CCCC2=O)cc1 (stereo not drawn) [Compound 4, 1-(4-(2-methyl-3,4-dihydroquinolin-1(2H)-ylsulfonyl)phenyl)pyrrolidin-2-one]
food or water intake or behavior [7]: no differences in food or water intake or behavior | overall toxicity in healthy rats [7]: nontoxic | weights of the rats compared to controls [7]: no differences in the weights of the rats were observed | IC50 (LNCap): 0.087 µM | IC50 (HCT-116): 0.052 µM | IC50 (PC-3 [1]): 0.117 µM | BAK expression, % change relative to DMSO control [2]: −55% | BAX expression, % change relative to DMSO control [2]: −55% | BBC3 expression, % change relative to DMSO control [2]: −37% | CCDN1 expression, % change relative to DMSO control [2]: −42% | FOS expression, % change relative to DMSO control [2]: −25% | JUN expression, % change relative to DMSO control [2]: −25% | MYC expression, % change relative to DMSO control [2]: −75% | IC50 at 24 h [3]: > 5 µM | IC50 (PC-3 [4]): 0.1 µM | IC50 (PC-3 [5]): 0.017 µM | BAK expression, % change relative to DMSO control [6]: −42% | BAX expression, % change relative to DMSO control [6]: −55% | BBC3 expression, % change relative to DMSO control [6]: −85% | CCDN1 expression, % change relative to DMSO control [6]: −30% | FOS expression, % change relative to DMSO control [6]: −38% | MYC expression, % change relative to DMSO control [6]: −40%

CN1CCN(S(=O)(=O)c2ccc(N3CCCC3=O)cc2)c2ccccc21 [Compound 15, 1-(4-(4-methyl-3,4-dihydroquinoxalin-1(2H)-ylsulfonyl)phenyl)pyrrolidin-2-one]
food or water intake or behavior [7]: no differences in food or water intake or behavior | overall toxicity in healthy rats [7]: nontoxic | toxicity in tissue (liver, heart, kidney, lung and intestine) [7]: did not show any indication of toxicity | weights of the rats compared to controls [7]: no differences in the weights of the rats were observed | serum clinical chemistry values compared with vehicle-treated animals ([7]; at termination): did not alter the clinical chemistry values | IC50 (LNCap): 0.124 µM | IC50 (HCT-116): 0.009 µM | IC50 (PC-3 [1]): 0.032 µM | weight of the excised HCT-116 tumors, lower relative to the vehicle control ([8]; i.p. 20 mg/kg daily, Day 28): 77% | growth of HCT-116 colon tumors ([8]; nu/nu mice, i.p. 20 mg/kg daily for 28 days): decreased the growth of HCT-116 colon tumors | BAK expression, % change relative to DMSO control [2]: −58% | BAX expression, % change relative to DMSO control [2]: −54% | BBC3 expression, % change relative to DMSO control [2]: −45% | CCDN1 expression, % change relative to DMSO control [2]: −30% | FOS expression, % change relative to DMSO control [2]: −24% | JUN expression, % change relative to DMSO control [2]: −30% | MYC expression, % change relative to DMSO control [2]: −60% | IC50 at 24 h [3]: > 5 µM | IC50 (PC-3 [4]): 0.02 µM | growth of PC-3 prostate tumors (PC-3 prostate tumors): inhibited the growth of PC-3 prostate tumors | weight of the excised PC-3 tumors compared to vehicle-treated controls (PC-3 prostate tumors; i.p. 30 mg/kg daily, Day 19): 66% | IC50 (PC-3 [5]): 0.032 µM | BAK expression, % change relative to DMSO control [6]: −45% | BAX expression, % change relative to DMSO control [6]: −58% | BBC3 expression, % change relative to DMSO control [6]: −55% | CCDN1 expression, % change relative to DMSO control [6]: −28% | FOS expression, % change relative to DMSO control [6]: −25% | JUN expression, % change relative to DMSO control [6]: +45% | MYC expression, % change relative to DMSO control [6]: −45%
